Assay: Elution rate in aqueous solutions of various pH and physiological saline solution
Type: physicochemical
Experimental: After 40 ml of Japan Pharmacopoeia 1st solution (pH 1.2) was placed in a vessel whose temperature was kept constant in a thermostat at 37° C., 200 mg of TMS-19-Q was added and the mixture was stirred by a magnetic stirrer. […] Then, Japan Pharmacopoeia 2nd solution were mixed with the 1st solution, and by using aqueous solutions whose pH values were adjusted to be 2, 3, 4 and 5 and a physiological saline solution, respectively, elution rate of each thereof was measured.
To 40 ml of Japan Pharmacopoeia 1st solution (pH 1.2), 120 ml of water was added, and after the solution was kept in a constant temperature bath controlled at 37° C., 200 mg of midecamycin was added, and the mixture was stirred by a magnetic stirrer. Then, 5 ml aliquots of the solution were sampled in a lapse of time (at 5 minutes, 15 minutes and 30 minutes), and absorbances were measured (wavelength: 232 nm) and elution rate were calculated. Then, Japan Pharmacopoeia 1st solution and Japan Pharmacopoeia 2nd solution were mixed to prepare aqueous solutions whose pH values were adjusted to be 2, 3, 4 and 5, respectively. By using these solutions and physiological saline solution, the elution rates were calculated following the same procedures as those indicated above.
By following the same procedures and under the same conditions as those of Example 31, elution rates of 9-propionyljosamycin were measured.
By following the same procedures and under the same conditions as those of Example 31, elution rates of josamycin were measured.
In addition to the conditions of Example 31, Japan Pharmacopoeia 1st solution and Japan Parmacopoeia 2nd solution were mixed to prepare an aqueous solution having pH of 2.5, and following the same procedures as those of Example 31, elution rates of 9,3"-diacetylmidecamycin were measured.

elution rate, pH 1.2, 2 and 3 (initial pH 1.2, 2 and 3, after 15-minute stirring, 37° C.): ≥ 90% | elution rate, pH 4 and 5 (initial pH 4 and 5, after 15-minute stirring, 37° C.): 40-45% | elution rate in pH 1.2-3 acidic aqueous solution (summary) (pH 1.2-3, general description): more than 95% | elution rate in pH 4-5 weak acidic aqueous solution (summary) (pH 4-5, general description): less than 50% | elution rate, physiological saline solution (physiological saline solution, after 15-minute stirring, 37° C.): 10% | elution rate in physiological saline solution (summary) (physiological saline solution, general description): less than 15% | time within which elution was nearly completed (solutions whose pH is equal to or less than 4.5): ≤ 15 min
Structure (SMILES): CCCC(=O)OC1C(C)OC(OC2C(C)OC(OC3C(CC=O)CC(C)C(O)/C=C/C=C/CC(C)OC(=O)CC(O)C3OC)C(O)C2N(C)C)CC1(C)OC(=O)CC (stereo not shown) [TMS-19-Q, 3"-propionyl leucomycin A5]
